Reference: US5700801A, “Piperazine derivatives, pharmaceutical compositions containing these compounds, their use and processes for preparing them” (Karl Thomae, GmbH, priority 1994, dated 1997)
Where a name gives a salt, the structure may show the parent alone.

Tests used:
human thrombocytes = assay: Inhibition of binding of ^3 H-BIBU 52 to human thrombocytes (table: Fibrinogen binding test); conditions: ^3 H-BIBU 52 (5 nM), human thrombocytes in plasma, ambient temperature, 20 minutes
Method: 1. Inhibition of binding of ^3 H-BIBU 52 to human thrombocytes:
A suspension of human thrombocytes in plasma is incubated with ^3 H-BIBU 52 [=(3S,5S)-5-[(4'-amidino-4-biphenylyl)oxymethyl]-3-[(carboxyl)methyl]-2-pyrrolidinone[3-^3 H-4-biphenylyl]] (see DE-A-4,214,245), which replaces the ^125 I fibrinogen ligand known from the literature, and various concentrations of the substance to be tested. The free and bound ligand is separated by centrifuging and quantified by scintillation counting. The inhibition of ^3 H-BIBU 52 binding by the test substance is determined from the measurements obtained.
In order to do this, donor blood is taken from an anticubital vein and anticoagulated with trisodium citrate (final concentration 13 mM). The blood is centrifuged for 10 minutes at 170×g and the supernatant platelet-rich plasma (PRP) is removed. The remaining blood is vigorously centrifuged once more in order to obtain plasma. The PRP is diluted 1:10 with autologous plasma. 750 μl are incubated with 50 μl of physiological saline solution, 100 μl of test substance solution, 50 μl of ^14 C-sucrose (3,700 Bq) and 50 μl of ^3 H-BIBU 52 (final concentration: 5 nM) at ambient temperature for 20 minutes. In order to measure the non-specific binding, 5 μl of BIBU 52 (final concentration: 30 μM) are used instead of the test substance. The samples are centrifuged for 20 seconds at 10,000×g and the supernatant is poured off. 100 μl thereof are counted in order to determine the amount of free ligand. The pellet is dissolved in 500 μl of 0.2N NaOH, 450 μl are mixed with 2 ml of scintillator and 25 μl of 5N HCl and measured. The residual plasma remaining in the pellet is determined from the ^14 C-content and the bound ligand is determined from the ^3 H-measurement. After the non-specific binding has been deducted, the pellet activity is plotted against the concentration of the test substance and the concentration for a 50% inhibition of binding is determined.

[1] = tested on: thrombocyte aggregation in platelet-rich plasma taken from healthy volunteers; assay: Antithrombotic activity: inhibition of collagen-induced platelet aggregation (Born and Cross) in platelet-rich plasma; format: cell-based; conditions: Homo sapiens, 10 minutes preincubation at 37° C.
Method: 2. Antithrombotic activity
The thrombocyte aggregation is measured using the method of Born and Cross (J. Physiol. 170: 397 (1964)) in platelet-rich plasma taken from healthy volunteers. To inhibit coagulation, the blood is mixed with 3.14% sodium citrate in a volume ratio of 1:10.
Collagen-induced aggregation
The pattern of the decrease in optical density of the platelet suspension is photometrically measured and recorded after the addition of the aggregation-triggering substance. The rate of aggregation is determined from the angle of inclination of the density curve. The point on the curve where there is maximum light transmittance is used to calculate the optical density.
The concentration of collagen used is as small as possible but sufficient to produce an irreversible reaction curve. Standard commercial collagen produced by Hormonchemie of Munich is used.
Before the addition of the collagen the plasma is incubated for 10 minutes with the substance at 37° C.
From the measurements obtained the EC50 is determined, which indicates the concentration giving a 50% change in the optical density in terms of the inhibition of aggregation.

| SMILES | IC50 (human thrombocytes) [nM] | EC50 [1] [nM] |
| --- | --- | --- |
| O=C(O)CC[C@H]1CC[C@H](NC(=O)N2CCN(c3ccncc3)CC2)CC1 [5(6), 3-[4-trans-[4-(4-Pyridyl)-piperazin-1-yl]carbonylamino]cyclohexylpropionicacid hydrochloride] | 0.25 | 0.16 |
| O=C(CC(=O)N1CCN(c2ccncc2)CC1)N[C@H]1CC[C@H](C(=O)O)CC1 [5(7), [4-trans-[4-(4-Pyridyl)-piperazin-1-yl]malonylamino]cyclohexylcarboxylic a cid hydrochloride] | 0.23 | 0.25 |
| O=C(O)CCN1CCC(NC(=O)N2CCN(c3ccncc3)CC2)CC1 [5(8), 3-[4-[4-(4-pyridyl)-piperazin-1-yl]carbonylamino]piperidinopropionic acid dihydrochloride] | 0.41 | 0.6 |
| O=C(O)CN1CCC(NC(=O)N2CCN(c3ccncc3)CC2)CC1 [5(9), [4-[4-(4-Pyridyl)-piperazin-1-yl]carbonylamino]piperidino-acetic acid] | 0.43 | 4.4 |
| COC(=O)[C@H]1CC[C@H](NC(=O)CCN2CCN(c3ccncc3)CC2)CC1 [Example 1, Methyl[4-trans-[3-[4-(4-pyridyl)-piperazin-1-yl]propionyl]-amino]cyclohexane carboxylate] | > 100 | 3.32 |
| O=C(CCN1CCN(c2ccncc2)CC1)N[C@H]1CC[C@H](C(=O)O)CC1 [Example 5, [4-trans-[3-[4-(4-Pyridyl)-piperazin-1-yl]propionyl]amino]-cyclohexane-carboxylic acid dihydrochloride] | 0.21 | 0.26 |
